Measured values: patent US8362015B2, “Aminoacyl prodrug derivatives and medicaments for treatment of thromboembolic disorders” (Bayer Intellectual Property GmbH, priority 2006, dated 2013)
Where a name gives a salt, the structure may show the parent alone.

Key:
[1] = Stability in buffer at various pH values (HPLC, unchanged test substance); assay type: physicochemical; settings: acetonitrile/buffer 1:1
Procedure: 0.3 mg of the test substance is weighed into a 2 ml HPLC vial and 0.5 ml of acetonitrile is added. The substance is dissolved by putting the sample vessel in an ultrasonic bath for about 10 seconds. Then 0.5 ml of the respective buffer solution is added, and the sample is again treated in the ultrasonic bath.
Buffer solutions employed: • pH 4.0: 1 liter of Millipore water is adjusted to pH 4.0 with 1 N hydrochloric acid; • pH 7.4: 90 g of sodium chloride, 13.61 g of potassium dihydrogen phosphate and 83.35 g of 1 M sodium hydroxide solution are made up to 1 liter with Millipore water and then diluted 1:10.
5 μl portions of the test solution are analysed by HPLC for their content of unchanged test substance every hour over a period of 24 hours at 25° C. The percentage areas of the appropriate peaks are used for quantification.
Agilent 1100 with DAD (G1314A), binary pump (G1312A), autosampler (G1329A), column oven (G1316A), thermostat (G1330A); column: Kromasil 100 C18, 60 mm×2.1 mm, 3.5 μm; column temperature: 30° C.; eluent A: water+5 ml of perchloric acid/liter, eluent B: acetonitrile; gradient: 0-1.0 min 98% A, 2% B→1.0-9.0 min 2% A, 98% B; 9.0-13.0 min 2% A, 98% B; 13.0-13.5 min 98% A, 2% B; 13.5-15.0 98% A, 2% B; flow rate: 0.75 ml/min; UV detection: 210 nm.
The ratios of the peak areas (F) at the respective time points in relation to the peak areas at the starting time are shown in Table 2 for representative exemplary embodiments: […]

[2] = Determination of the solubility in dilute hydrochloric acid (pH 4); assay type: physicochemical; settings: aqueous buffer, thermodynamic from solid, room temperature, shaken 24 h
Procedure: The test substance is suspended in water or dilute hydrochloric acid (pH 4). This suspension is shaken at room temperature for 24 h. After ultracentrifugation at 224 000 g for 30 min, the supernatant is diluted with DMSO and analysed by HPLC. A two-point calibration plot of the test compound in DMSO is used for quantification.
Agilent 1100 with DAD (G1315A), quat. pump (G1311A), autosampler CTC HTS PAL, degasser (G1322A) and column thermostat (G1316A); column: Kromasil C18, 60×2.1 mm, 3.5 μm; temperature: 30° C.; eluent A: water+5 ml of perchloric acid/liter, eluent B: acetonitrile; flow rate: 0.7 ml/min; gradient: 0-0.5 min 98% A, 2% B; ramp 0.5-4.5 min 10% A, 90% B; 4.5-6 min 10% A, 90% B; ramp 6.5-6.7 min 98% A, 2% B; 6.7-7.5 min 98% A, 2% B.

Row | Compound | % test substance after 4 h [F(t = 4 h) × 100/F(t = 0 h)] ([1]; buffer pH 4, 25° C.) [%] | % test substance after 24 h [F(t = 24 h) × 100/F(t = 0 h)] ([1]; buffer pH 4, 25° C.) [%] | % test substance after 4 h [F(t = 4 h) × 100/F(t = 0 h)] ([1]; buffer pH 7.4, 25° C.) [%] | % test substance after 24 h [F(t = 24 h) × 100/F(t = 0 h)] ([1]; buffer pH 7.4, 25° C.) [%] | solubility at 24 h [2] [µg/mL]
1 | NCC(=O)OCCCCC(=O)N(C[C@H]1CN(c2ccc(N3CCOCC3=O)cc2)C(=O)O1)C(=O)c1ccc(Cl)s1 [Example 2, hydrochloride] | 101 | 101 | 99 | 94 | 
2 | CC(C)[C@H](N)C(=O)OCCCCC(=O)N(C[C@H]1CN(c2ccc(N3CCOCC3=O)cc2)C(=O)O1)C(=O)c1ccc(Cl)s1 [Example 3, hydrochloride] | 100 | 101 | 100 | 100 | > 3500
3 | CC(C)[C@H](N)C(=O)SCCCCC(=O)N(C[C@H]1CN(c2ccc(N3CCOCC3=O)cc2)C(=O)O1)C(=O)c1ccc(Cl)s1 [Example 4, S-(5-{[(5-Chloro-2-thienyl)carbonyl]({(5S)-2-oxo-3-[4-(3-oxomorpholin-4-yl)phenyl]-1,3-oxazolidin-5-yl}methyl)amino}-5-oxopentyl)(2S)-2-amino-3-methylbutanethioate hydrochloride] | 100 | 100 | 92 | 77 | 
4 | NCC(=O)SCCCCC(=O)N(C[C@H]1CN(c2ccc(N3CCOCC3=O)cc2)C(=O)O1)C(=O)c1ccc(Cl)s1 [Example 5, S-(5-{[(5-Chloro-2-thienyl)carbonyl]({(5S)-2-oxo-3-[4-(3-oxomorpholin-4-yl)phenyl]-1,3-oxazolidin-5-yl}methyl)amino}-5-oxopentyl)aminoethanethioate hydrochloride] | 100 | 100 | 96 | 84 | 
5 | NCCCC[C@H](N)C(=O)SCCCCC(=O)N(C[C@H]1CN(c2ccc(N3CCOCC3=O)cc2)C(=O)O1)C(=O)c1ccc(Cl)s1 [Example 6, S-(5-{[(5-Chloro-2-thienyl)carbonyl]({(5S)-2-oxo-3-[4-(3-oxomorpholin-4-yl)phenyl]-1,3-oxazolidin-5-yl}methyl)amino}-5-oxopentyl)(2S)-2,6-diaminohexanethioate dihydrochloride] | 99 | 99 | 90 | 53 | 
6 | C[C@H](N)C(=O)SCCCCC(=O)N(C[C@H]1CN(c2ccc(N3CCOCC3=O)cc2)C(=O)O1)C(=O)c1ccc(Cl)s1 [Example 7, S-(5-{[(5-Chloro-2-thienyl)carbonyl]({(5S)-2-oxo-3-[4-(3-oxomorpholin-4-yl)phenyl]-1,3-oxazolidin-5-yl}methyl)amino}-5-oxopentyl)(2S)-2-aminopropanethioate hydrochloride] | 100 | 101 | 97 | 84 | > 500
7 | CC(C)[C@H](N)C(=O)SCCCC(=O)N(C[C@H]1CN(c2ccc(N3CCOCC3=O)cc2)C(=O)O1)C(=O)c1ccc(Cl)s1 [Example 8, S-(5-{[(5-Chloro-2-thienyl)carbonyl]({(5S)-2-oxo-3-[4-(3-oxomorpholin-4-yl)phenyl]-1,3-oxazolidin-5-yl}methyl)amino}-4-oxobutyl)(2S)-2-amino-3-methylbutanethioate hydrochloride] | 100 | 100 | 86 | 48 | 
8 | O=C(NCCCCC(=O)N(C[C@H]1CN(c2ccc(N3CCOCC3=O)cc2)C(=O)O1)C(=O)c1ccc(Cl)s1)[C@@H]1CCCN1 [Example 11, N-(5-{[(5-Chloro-2-thienyl)carbonyl]({(5S)-2-oxo-3-[4-(3-oxomorpholin-4-yl)phenyl]-1,3-oxazolidin-5-yl}methyl)amino}-5-oxopentyl)-L-prolineamide hydrochloride] | 101 | 101 | 100 | 99 | 
9 | N[C@@H](Cc1c[nH]cn1)C(=O)NCCCCC(=O)N(C[C@H]1CN(c2ccc(N3CCOCC3=O)cc2)C(=O)O1)C(=O)c1ccc(Cl)s1 [Example 12, N-(5-{[(5-Chloro-2-thienyl)carbonyl]({(5S)-2-oxo-3-[4-(3-oxomorpholin-4-yl)phenyl]-1,3-oxazolidin-5-yl}methyl)amino}-5-oxopentyl)-L-histidinamide hydrochloride] | 100 | 101 | 99 | 93 | > 3000
10 | NCCCC[C@H](N)C(=O)NCCCCC(=O)N(C[C@H]1CN(c2ccc(N3CCOCC3=O)cc2)C(=O)O1)C(=O)c1ccc(Cl)s1 [Example 14, N-(5-{[(5-Chloro-2-thienyl)carbonyl]({(5S)-2-oxo-3-[4-(3-oxomorpholin-4-yl)phenyl]-1,3-oxazolidin-5-yl}methyl)amino}-5-oxopentyl)-L-lysinamide hydrochloride] | 100 | 100 | 98 | 88 | 1900
